Key:
photodamaged skin [1] = test: Clinical grading of tolerability (irritation/safety parameters); type: in vivo, human
Experimental: (§1) A clinical study was conducted to examined the combined use of retinoic acid therapy with myristyl nicotinate (MN), a lipophilic derivative of niacin that enhances skin barrier function, in subjects with mild to moderate facial photodamage.
(§2) The subjects were randomly assigned to one of three groups of 20 subjects each. One month prior to the initiation of retinoic acid therapy, one of the groups (group 3) began to apply to the entire face, both night and morning, a formulation containing 5% myristyl nicotinate. Groups 1 and 2 applied, in the same manner, a placebo formulation in which myristyl myristate replaced myristyl nicotinate. Upon initiation of retinoic acid therapy (baseline), group 1 (placebo/placebo+RA) continued to use the placebo formulation as above, group 2 (placebo/MN+RA) initiated use of the 5% myristyl nicotinate formulation and group 3 (MN/MN+RA) continued to use the 5% myristyl nicotinate formulation. Retinoic acid therapy involved a 0.025% concentration of the drug applied at night, immediately following application of the placebo or myristyl nicotinate containing formulations. This strength of retinoic acid was chosen for this study as the subjects had mild to moderate photodamage.
(§3) In order to assess both the tolerability and efficacy of retinoic acid therapy, subjects also were clinically graded on the right and/or left side of the face for efficacy/performance parameters and irritation/safety parameters at baseline, and weeks 2, 4, 8, and 12.
The most severe parameters of tolerability such as scaling/peeling and degree of erythema were graded on 3-point clinical scale at weeks 2, 4, 8, and 12, and mean values were determined. The frequency of less severe parameters of tolerability typical of retinoic acid therapy (including tightness/dryness, stinging, burning, and tingling) was also evaluated.

photodamaged skin [2] = test: Rates of transepidermal water loss (TEWL), right cheek, Dermalab; type: in vivo, human; settings: for change from baseline in mean rates of TEWL: 12 weeks
Experimental: as §1, §2
Determination of rates of TEWL provides a non-invasive assessment of relative skin barrier function. […] For the TEWL measurements, the instruments required a specified temperature and humidity range for optimal function, thus subjects were required to equilibrate to ambient conditions for at least 20 min prior to measurements. Temperature was maintained between 66 and 72° F. and relative humidity maintained between 15 and 55%. A computer-linked Dermalab instrument was used to measure TEWL at two points above the skin surface on the right cheeks of study subjects and the rate of water loss was calculated. Each TEWL measurement was averaged over a one-min measurement period.

caspase 14 = test: Caspase 14 expression in study subjects; type: in vivo, human
Source text: (§4) To investigate this, the levels of expression of both caspase 14 and filaggrin were investigated in the groups of subjects referred to supra, (i.e., subjects who received placebo alone for one month, then placebo plus retinoic acid, and those who received placebo only for one month and then myristyl nicotinate and retinoic acid during the treatment phase.

photodamaged skin [3] = test: Suprapapillary epidermal thickness of periorbital punch biopsies; type: in vivo, human; settings: for increase in epidermal thickness: 12 weeks
Experimental: as §1, §2
Accordingly, periorbital biopsy samples obtained from study subjects were evaluated for stratum corneum thickness. A board certified dermatologist collected a 2-mm punch biopsy from the right or left side of the face as determined by a randomization design of 7 randomly selected subjects from each group at baseline and after 12 weeks of treatment. The punch biopsies were formalin-fixed, embedded in paraffin, cut into 5 μm cross-sections, mounted on slides, and stained with hematoxylin-eosin (H&E).
Histological images were taken of the H&E stained cross sections with an Olympus inverted stage microscope using a 10× by 0.45 Apochromat objective and a Nikon digital CCD camera. ImageJ image analysis software (NIH) was used to examine the images and perform measurements. Suprapapillary epidermal thickness (as measured from the top of the dermal papilla to the top of the granular layer) and stratum corneum thickness (as measured from the top of the granular layer to the top of the stratum corneum) were measured. For each specimen, five different sites were measured and the average was calculated.
Since long term retinoid therapy is associated with an increase in epidermal thickness, changes in epidermal thickness in each of the groups over the 12-week course of the retinoic acid therapy were also assessed. The mean values for the placebo/placebo+RA, placebo/MN+RA, and MN/MN+RA groups at the baseline were 37.9, 38.8, and 39.3 μm, respectively. […]

photodamaged skin [4] = test: Stratum corneum thickness of periorbital punch biopsies, clinical study; type: in vivo, human
Experimental: as §1
All subjects selected for the study were female, between the ages of 30 and 60, with a score of I to IV on the Fitzpatrick Skin Classification, mild to moderate photodamaged skin as defined by a modified Glogau Classification of I to II, and with presence of dyschromia on the face as determined by a woods light visual scan.
The subjects were randomly assigned to one of three groups of 20 subjects each. One month prior to the initiation of retinoic acid therapy, one of the groups (group 3) began to apply to the entire face, both night and morning, a formulation containing 5% myristyl nicotinate. Groups 1 and 2 applied, in the same manner, a placebo formulation in which myristyl myristate replaced myristyl nicotinate. […]
Accordingly, periorbital biopsy samples obtained from study subjects were evaluated for stratum corneum thickness. A board certified dermatologist collected a 2-mm punch biopsy from the right or left side of the face as determined by a randomization design of 7 randomly selected subjects from each group at baseline and after 12 weeks of treatment. […]
Histological images were taken of the H&E stained cross sections with an Olympus inverted stage microscope using a 10× by 0.45 Apochromat objective and a Nikon digital CCD camera. […] Suprapapillary epidermal thickness (as measured from the top of the dermal papilla to the top of the granular layer) and stratum corneum thickness (as measured from the top of the granular layer to the top of the stratum corneum) were measured. For each specimen, five different sites were measured and the average was calculated.

filaggrin = test: Filaggrin expression in study subjects; type: in vivo, human
Source text: as §4

photodamaged skin [5] = settings: 5% myristyl nicotinate for 3 months, previous studies; cited from earlier work
photodamaged skin [6] = test: Clinical grading of efficacy (dyschromia, fine lines, wrinkles, tactile roughness, temple laxity); type: in vivo, human; settings: for grading of temple laxity vs placebo/placebo+RA: 12 weeks
Experimental: as §1, §2, §3
Clinical grading involved evaluation of dyschromia, fine lines, shallow wrinkles, tactile roughness, and temple laxity as a function of treatment time (at weeks 2, 4, 8, and 12).

[7] = MN/MN+RA group (prior and concurrent MN)

Compound: CC1=C(/C=C/C(C)=C/C=C/C(C)=C/C(=O)O)C(C)(C)CCC1 [retinoic acid, All-trans-retinoic acid]
- frequency of tingling (photodamaged skin [1]; retinoic acid therapy 0.025%, frequency reported in the study): 2%
- increase in rates of TEWL (photodamaged skin [2]; placebo/placebo+RA group, 12 week period, p<0.0001): approximately 45%
- average increase in caspase 14 expression (caspase 14; placebo plus retinoic acid for 3 months): 5%
- decrease in mean epidermal thickness (photodamaged skin [3]; retinoic acid and placebo cream, 12 week study): approximately 5%
- reduction in stratum corneum thickness (photodamaged skin [4]; placebo/placebo+RA group, 12 weeks of 0.025% retinoic acid therapy, p=0.006 vs. baseline): approximately 24%
- change in filaggrin expression (filaggrin; subjects not treated with myristyl nicotinate (placebo plus retinoic acid)): no change

Compound: CCCCCCCCCCCCCCOC(=O)c1cccnc1 [myristyl nicotinate]
- increase in stratum corneum thickness (photodamaged skin [5]): more than 50%
- incidence of tingling (photodamaged skin [1]; [7]): zero
- frequency of tightness/dryness, stinging, and burning (photodamaged skin [1]; concurrent use of myristyl nicotinate with retinoic acid therapy): decreased
- grading of erythema vs placebo (photodamaged skin [1]; myristyl nicotinate treated subjects on 0.025% retinoic acid, difference not statistically significant): consistently slightly higher
- frequency of tightness/dryness, stinging, and burning (photodamaged skin [1]; prior and concurrent myristyl nicotinate use with retinoic acid therapy): further reduced
- change from baseline in mean rates of TEWL (photodamaged skin [2]; [7]): not statistically significant
- change from baseline in mean rates of TEWL (photodamaged skin [2]; placebo/MN+RA group (concurrent MN)): not statistically significant
- increase in caspase 14 expression (caspase 14; placebo, retinoic acid and myristyl nicotinate for 3 months): 24%
- mean epidermal thickness (photodamaged skin [3]; MN/MN+RA group at baseline, after one month of 5% myristyl nicotinate): 39.3 μm
- increase in epidermal thickness (photodamaged skin [3]; myristyl nicotinate concurrent with retinoic acid): approximately 3%
- increase in epidermal thickness (photodamaged skin [3]; myristyl nicotinate prior/concurrent with retinoic acid, p=0.0007 vs placebo/placebo+RA): approximately 10%
- grading of temple laxity vs placebo/placebo+RA (photodamaged skin [6]; MN/MN+RA group, p=0.02): statistically significant greater improvement
- tactile roughness scores (photodamaged skin [6]; MN/MN+RA group, weeks 4 to 12): consistently showed greater improvement
- grading of temple laxity vs placebo/placebo+RA (photodamaged skin [6]; placebo/MN+RA group, not significant at p<0.05): trend for greater improvement
- higher mean stratum corneum thickness compared to the mean values of the other groups (photodamaged skin [4]; MN/MN+RA group at baseline, after one month of 5% myristyl nicotinate, not significant at p<0.05): approximately 11%
- change in stratum corneum thickness (photodamaged skin [4]; concurrent use of 5% myristyl nicotinate and 0.025% retinoic acid, 12 weeks): did not result in a decrease in stratum corneum thickness
- average increase in filaggrin expression (filaggrin; placebo, myristyl nicotinate and retinoic acid): 13%
